Assay [1] concerns the target Tyrosine-protein kinase SYK (Homo sapiens, UniProt P43405). The experiment in a line: Inhibition of SYK (unknown origin).
Assay [2] has as its target Mitogen-activated protein kinase 10 (Homo sapiens, UniProt P53779). The experiment in a line: Inhibition of JNK3 (unknown origin).
Assay [3] concerns the target Proto-oncogene tyrosine-protein kinase Src (Homo sapiens, UniProt P12931). The experiment in a line: Inhibition of SRC (unknown origin).
In assay [4] the target is T1, Interleukin-1 receptor-associated kinase 4 (Homo sapiens, UniProt Q9NWZ3).
T1 sequence (Q9NWZ3 whole entry): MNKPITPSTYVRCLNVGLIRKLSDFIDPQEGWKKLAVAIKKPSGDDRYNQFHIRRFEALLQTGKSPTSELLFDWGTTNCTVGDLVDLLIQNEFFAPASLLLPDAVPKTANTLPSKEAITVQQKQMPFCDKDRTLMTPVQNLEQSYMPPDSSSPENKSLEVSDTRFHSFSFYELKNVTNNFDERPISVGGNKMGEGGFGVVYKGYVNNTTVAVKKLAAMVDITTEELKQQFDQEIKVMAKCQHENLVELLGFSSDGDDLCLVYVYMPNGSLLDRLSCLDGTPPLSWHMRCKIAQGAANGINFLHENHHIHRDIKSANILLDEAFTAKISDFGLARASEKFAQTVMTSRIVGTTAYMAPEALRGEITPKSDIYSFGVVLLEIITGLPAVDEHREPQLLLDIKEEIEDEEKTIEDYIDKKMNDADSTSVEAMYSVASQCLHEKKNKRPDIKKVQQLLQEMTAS
The experiment in a line: Inhibition of IRAK4 (unknown origin).

In assay [5] the target is cAMP-dependent protein kinase catalytic subunit alpha (Homo sapiens, UniProt P17612). The experiment in a line: Inhibition of PKAa (unknown origin).
Assay [6] has as its target Phosphatidylinositol 4,5-bisphosphate 3-kinase catalytic subunit beta isoform (Homo sapiens, UniProt P42338). The experiment in a line: Inhibition of PI3Kbeta (unknown origin).
Assay [7] has as its target Hepatocyte growth factor receptor (Homo sapiens, UniProt P08581). The experiment in a line: Inhibition of MET (unknown origin).
Assay [8] deals with Serine/threonine-protein kinase PLK1 (Homo sapiens, UniProt P53350). The experiment in a line: Inhibition of PLK (unknown origin).
Assay [9] has as its target Rho-associated protein kinase (Homo sapiens, UniProt O75116+Q13464). The experiment in a line: Inhibition of ROCK (unknown origin). Type of assay: protein-complex assay.
Assay [10] has as its target Cyclin-dependent kinase 2 (Homo sapiens, UniProt P24941). The experiment in a line: Inhibition of CDK2 (unknown origin).
In assay [11] the target is Phosphatidylinositol 4,5-bisphosphate 3-kinase catalytic subunit alpha isoform (Homo sapiens, UniProt P42336). The experiment in a line: Inhibition of PI3Kalpha (unknown origin).
Phosphatidylinositol 4,5-bisphosphate 3-kinase catalytic subunit alpha isoform, sequence (P42336 whole entry, canonical isoform): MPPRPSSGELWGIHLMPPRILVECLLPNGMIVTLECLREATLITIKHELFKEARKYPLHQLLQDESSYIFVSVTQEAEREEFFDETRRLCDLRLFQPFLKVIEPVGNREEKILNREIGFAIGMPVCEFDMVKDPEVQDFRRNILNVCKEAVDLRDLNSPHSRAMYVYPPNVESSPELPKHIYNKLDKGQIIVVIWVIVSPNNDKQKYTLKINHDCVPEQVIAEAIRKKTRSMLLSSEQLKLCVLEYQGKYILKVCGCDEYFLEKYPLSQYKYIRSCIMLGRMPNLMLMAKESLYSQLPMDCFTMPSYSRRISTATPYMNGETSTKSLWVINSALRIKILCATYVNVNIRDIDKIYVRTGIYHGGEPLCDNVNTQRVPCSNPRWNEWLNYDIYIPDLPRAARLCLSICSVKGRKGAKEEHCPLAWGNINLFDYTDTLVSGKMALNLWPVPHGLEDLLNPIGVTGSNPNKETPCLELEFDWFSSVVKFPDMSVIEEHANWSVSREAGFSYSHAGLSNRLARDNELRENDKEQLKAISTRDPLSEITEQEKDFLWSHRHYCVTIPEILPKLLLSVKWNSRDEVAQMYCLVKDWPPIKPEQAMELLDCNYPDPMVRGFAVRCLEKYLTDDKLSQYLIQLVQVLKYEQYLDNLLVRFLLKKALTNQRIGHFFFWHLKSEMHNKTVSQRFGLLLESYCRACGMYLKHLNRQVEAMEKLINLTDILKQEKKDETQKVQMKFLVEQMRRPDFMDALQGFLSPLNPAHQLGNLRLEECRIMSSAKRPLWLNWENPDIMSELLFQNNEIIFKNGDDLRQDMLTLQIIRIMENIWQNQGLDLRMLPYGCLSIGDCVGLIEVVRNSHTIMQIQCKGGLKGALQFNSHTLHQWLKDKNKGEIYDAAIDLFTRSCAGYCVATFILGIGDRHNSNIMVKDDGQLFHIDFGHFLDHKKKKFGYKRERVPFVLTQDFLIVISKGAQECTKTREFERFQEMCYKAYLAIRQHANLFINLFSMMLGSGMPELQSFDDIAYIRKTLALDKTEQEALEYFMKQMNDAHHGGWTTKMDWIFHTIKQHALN
Assay [12] has as its target T2, Phosphatidylinositol 4,5-bisphosphate 3-kinase catalytic subunit delta isoform (Homo sapiens, UniProt O00329).
T2 sequence (O00329 whole entry): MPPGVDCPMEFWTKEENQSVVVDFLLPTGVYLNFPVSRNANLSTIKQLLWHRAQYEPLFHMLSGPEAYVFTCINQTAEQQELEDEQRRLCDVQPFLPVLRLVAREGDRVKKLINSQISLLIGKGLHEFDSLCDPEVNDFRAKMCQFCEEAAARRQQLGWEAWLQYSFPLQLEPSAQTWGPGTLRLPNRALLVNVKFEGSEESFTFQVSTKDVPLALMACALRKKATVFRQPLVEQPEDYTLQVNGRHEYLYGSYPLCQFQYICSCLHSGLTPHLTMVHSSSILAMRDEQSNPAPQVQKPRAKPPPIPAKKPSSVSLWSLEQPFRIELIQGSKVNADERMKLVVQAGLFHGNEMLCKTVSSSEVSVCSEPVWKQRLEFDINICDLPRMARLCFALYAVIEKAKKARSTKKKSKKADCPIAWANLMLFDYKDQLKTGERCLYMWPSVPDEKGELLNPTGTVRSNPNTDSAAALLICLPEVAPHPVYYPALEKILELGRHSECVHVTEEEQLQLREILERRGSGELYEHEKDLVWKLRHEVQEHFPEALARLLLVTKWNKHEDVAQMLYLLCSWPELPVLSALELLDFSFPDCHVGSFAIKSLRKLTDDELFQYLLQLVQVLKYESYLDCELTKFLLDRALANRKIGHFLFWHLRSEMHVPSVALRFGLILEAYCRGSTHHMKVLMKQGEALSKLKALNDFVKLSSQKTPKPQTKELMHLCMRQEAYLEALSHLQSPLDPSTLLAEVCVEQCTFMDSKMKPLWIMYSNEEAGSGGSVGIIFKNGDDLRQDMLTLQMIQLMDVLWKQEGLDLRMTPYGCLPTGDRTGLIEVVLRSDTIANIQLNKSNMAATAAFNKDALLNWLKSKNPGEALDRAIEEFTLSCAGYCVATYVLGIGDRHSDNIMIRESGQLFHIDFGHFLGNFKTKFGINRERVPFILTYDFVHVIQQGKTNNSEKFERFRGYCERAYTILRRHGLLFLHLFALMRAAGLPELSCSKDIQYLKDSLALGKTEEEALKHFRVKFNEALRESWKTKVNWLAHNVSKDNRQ
The experiment in a line: Inhibition of PI3Kdelta (unknown origin).

Assay [13] addresses Phosphatidylinositol 4,5-bisphosphate 3-kinase catalytic subunit gamma isoform (Homo sapiens, UniProt P48736). The experiment in a line: Inhibition of PI3Kgamma (unknown origin).
Assay [14] concerns the target Tyrosine-protein kinase JAK2 (Homo sapiens, UniProt O60674). The experiment in a line: Inhibition of JAK2 (unknown origin).
Assay [15] concerns the target T3, Receptor-type tyrosine-protein kinase FLT3 (Homo sapiens, UniProt P36888).
T3 sequence (P36888 whole entry): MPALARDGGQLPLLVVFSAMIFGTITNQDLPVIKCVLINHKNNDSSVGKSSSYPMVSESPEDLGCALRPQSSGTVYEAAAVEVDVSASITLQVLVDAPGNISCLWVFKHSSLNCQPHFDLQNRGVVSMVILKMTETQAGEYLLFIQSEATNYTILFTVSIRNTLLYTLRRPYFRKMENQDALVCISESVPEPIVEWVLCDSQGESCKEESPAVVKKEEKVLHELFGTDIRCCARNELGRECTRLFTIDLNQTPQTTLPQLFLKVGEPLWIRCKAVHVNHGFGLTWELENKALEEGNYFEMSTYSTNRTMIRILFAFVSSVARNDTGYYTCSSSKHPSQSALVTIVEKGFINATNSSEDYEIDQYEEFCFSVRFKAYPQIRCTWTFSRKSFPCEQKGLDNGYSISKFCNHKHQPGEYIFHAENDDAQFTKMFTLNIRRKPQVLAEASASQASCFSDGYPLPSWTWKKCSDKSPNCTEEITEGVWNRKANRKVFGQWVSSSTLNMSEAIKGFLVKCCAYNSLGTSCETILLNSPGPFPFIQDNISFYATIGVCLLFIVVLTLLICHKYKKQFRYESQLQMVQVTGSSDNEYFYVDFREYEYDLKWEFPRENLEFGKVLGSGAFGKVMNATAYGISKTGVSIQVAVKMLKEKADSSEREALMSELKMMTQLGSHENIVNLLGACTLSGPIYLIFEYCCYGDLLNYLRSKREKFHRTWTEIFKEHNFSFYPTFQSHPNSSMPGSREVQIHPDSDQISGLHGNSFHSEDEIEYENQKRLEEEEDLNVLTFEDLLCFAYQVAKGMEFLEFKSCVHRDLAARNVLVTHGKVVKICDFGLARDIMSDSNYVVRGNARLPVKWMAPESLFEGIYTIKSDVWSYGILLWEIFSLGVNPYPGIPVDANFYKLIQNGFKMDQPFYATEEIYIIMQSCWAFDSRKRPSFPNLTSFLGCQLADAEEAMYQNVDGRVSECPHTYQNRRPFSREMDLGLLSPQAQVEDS
The experiment in a line: Inhibition of FLT3 (unknown origin).

Assay [16] concerns Influenza A virus. The experiment in a line: Antiviral activity against influenza A virus A/PR/8/34 strain incubated with MDCK cells assessed as reduction of viral RNA level equal to 1% of control level after 72 hrs by branched DNA assay. Type of assay: functional, organism-based. As to conditions: A/Puerto Rico/8/1934(H1N1).
Assay [17] has as its system Influenza A virus. The experiment in a line: Antiviral activity against Influenza A virus A/PR/8/34 strain incubated with MDCK cells assessed as cell protection after 72 hrs by phenotypic cell protection assay. As to conditions: A/Puerto Rico/8/1934(H1N1). It counts as functional, organism-based.
The target of assay [18] is Glycogen synthase kinase-3 (Homo sapiens, UniProt P49840+P49841). The experiment in a line: Inhibition of GSK3 (unknown origin). Type of assay: protein assay.
Assay [19] addresses Vascular endothelial growth factor receptor 2 (Homo sapiens, UniProt P35968). The experiment in a line: Inhibition of KDR (unknown origin).

From ChEMBL document CHEMBL3399966, “Isosteric replacements of the carboxylic acid of drug candidate VX-787: Effect of charge on antiviral potency and kinase activity of azaindole-based influenza PB2 inhibitors” (Bioorg Med Chem Lett, 2015) come the findings set out here.

A value given as a limit tells only on which side of the number the result lay.

As a reminder, the Ki is the dissociation constant of the complex between target and ligand, obtained from inhibition or displacement. Higher therefore signals weaker binding. As usually defined, the EC50 is the concentration at which the effect is half-maximal. By EC99 is commonly meant the concentration needed for an effect of 99%. A word on the IC50: it is the concentration that gives 50% inhibition.

Hepatocyte growth factor receptor, sequence (P08581 whole entry): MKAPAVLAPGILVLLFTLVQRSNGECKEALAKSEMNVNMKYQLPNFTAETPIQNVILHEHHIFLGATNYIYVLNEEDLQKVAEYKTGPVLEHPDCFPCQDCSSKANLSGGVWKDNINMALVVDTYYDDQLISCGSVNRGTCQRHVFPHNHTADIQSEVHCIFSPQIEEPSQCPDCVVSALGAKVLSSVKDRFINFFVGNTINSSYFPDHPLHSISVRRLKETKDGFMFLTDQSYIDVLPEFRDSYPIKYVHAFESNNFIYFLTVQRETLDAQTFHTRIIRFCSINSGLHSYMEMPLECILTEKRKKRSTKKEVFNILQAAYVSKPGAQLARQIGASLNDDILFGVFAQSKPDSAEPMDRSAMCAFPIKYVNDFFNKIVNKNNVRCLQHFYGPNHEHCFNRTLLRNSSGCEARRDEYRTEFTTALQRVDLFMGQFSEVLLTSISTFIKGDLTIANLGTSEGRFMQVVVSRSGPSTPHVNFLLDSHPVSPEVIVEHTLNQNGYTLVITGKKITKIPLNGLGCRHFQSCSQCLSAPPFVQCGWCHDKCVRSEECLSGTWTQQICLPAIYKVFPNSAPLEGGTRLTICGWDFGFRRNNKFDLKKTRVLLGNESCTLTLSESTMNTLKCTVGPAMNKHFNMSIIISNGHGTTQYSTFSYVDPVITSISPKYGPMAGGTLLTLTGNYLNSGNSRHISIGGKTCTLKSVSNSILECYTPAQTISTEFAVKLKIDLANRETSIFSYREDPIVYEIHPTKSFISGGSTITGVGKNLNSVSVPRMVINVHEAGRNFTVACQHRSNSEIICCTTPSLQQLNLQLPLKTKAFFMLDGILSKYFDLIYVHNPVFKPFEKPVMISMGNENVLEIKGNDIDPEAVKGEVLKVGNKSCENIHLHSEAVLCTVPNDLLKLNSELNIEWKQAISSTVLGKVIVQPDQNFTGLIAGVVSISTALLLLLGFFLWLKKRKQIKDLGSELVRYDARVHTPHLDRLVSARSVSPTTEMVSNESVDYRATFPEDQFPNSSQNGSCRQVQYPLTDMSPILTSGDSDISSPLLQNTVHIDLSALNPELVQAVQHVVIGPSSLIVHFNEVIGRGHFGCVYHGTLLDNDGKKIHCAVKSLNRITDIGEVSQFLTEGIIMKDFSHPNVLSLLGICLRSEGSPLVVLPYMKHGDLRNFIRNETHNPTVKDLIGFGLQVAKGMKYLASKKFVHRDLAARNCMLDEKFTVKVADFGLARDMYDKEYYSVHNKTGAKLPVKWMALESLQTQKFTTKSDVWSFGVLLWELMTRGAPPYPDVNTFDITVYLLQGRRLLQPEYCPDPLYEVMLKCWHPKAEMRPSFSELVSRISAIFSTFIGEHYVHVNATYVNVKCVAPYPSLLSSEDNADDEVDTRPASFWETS
Phosphatidylinositol 4,5-bisphosphate 3-kinase catalytic subunit gamma isoform, sequence (P48736 whole entry, canonical isoform): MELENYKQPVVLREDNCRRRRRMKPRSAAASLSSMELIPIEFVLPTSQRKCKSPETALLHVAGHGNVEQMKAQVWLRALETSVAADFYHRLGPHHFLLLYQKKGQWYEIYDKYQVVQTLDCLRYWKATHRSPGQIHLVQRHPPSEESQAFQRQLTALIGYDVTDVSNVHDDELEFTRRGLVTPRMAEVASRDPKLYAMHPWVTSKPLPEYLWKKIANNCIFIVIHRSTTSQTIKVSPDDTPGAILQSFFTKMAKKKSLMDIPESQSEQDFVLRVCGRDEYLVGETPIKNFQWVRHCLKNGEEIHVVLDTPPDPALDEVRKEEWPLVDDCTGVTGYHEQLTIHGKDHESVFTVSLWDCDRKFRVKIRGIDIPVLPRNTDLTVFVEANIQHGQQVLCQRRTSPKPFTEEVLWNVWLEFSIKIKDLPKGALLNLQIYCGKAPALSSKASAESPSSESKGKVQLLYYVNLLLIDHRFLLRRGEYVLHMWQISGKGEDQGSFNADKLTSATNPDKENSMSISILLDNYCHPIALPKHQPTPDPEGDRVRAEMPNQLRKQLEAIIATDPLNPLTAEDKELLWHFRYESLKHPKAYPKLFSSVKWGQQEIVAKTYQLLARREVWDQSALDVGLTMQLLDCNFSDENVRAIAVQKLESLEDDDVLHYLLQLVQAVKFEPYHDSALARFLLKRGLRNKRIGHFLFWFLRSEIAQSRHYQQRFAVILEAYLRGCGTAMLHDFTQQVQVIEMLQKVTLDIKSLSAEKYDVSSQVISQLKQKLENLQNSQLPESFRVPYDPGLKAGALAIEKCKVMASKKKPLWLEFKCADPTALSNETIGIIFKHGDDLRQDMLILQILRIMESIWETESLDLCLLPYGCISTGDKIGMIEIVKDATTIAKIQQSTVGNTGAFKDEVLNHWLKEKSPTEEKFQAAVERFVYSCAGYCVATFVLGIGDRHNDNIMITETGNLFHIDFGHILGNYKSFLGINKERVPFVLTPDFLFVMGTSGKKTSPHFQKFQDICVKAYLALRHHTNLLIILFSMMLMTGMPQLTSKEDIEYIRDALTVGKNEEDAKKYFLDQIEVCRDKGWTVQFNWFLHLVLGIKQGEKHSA
Mitogen-activated protein kinase 10, sequence (P53779 whole entry): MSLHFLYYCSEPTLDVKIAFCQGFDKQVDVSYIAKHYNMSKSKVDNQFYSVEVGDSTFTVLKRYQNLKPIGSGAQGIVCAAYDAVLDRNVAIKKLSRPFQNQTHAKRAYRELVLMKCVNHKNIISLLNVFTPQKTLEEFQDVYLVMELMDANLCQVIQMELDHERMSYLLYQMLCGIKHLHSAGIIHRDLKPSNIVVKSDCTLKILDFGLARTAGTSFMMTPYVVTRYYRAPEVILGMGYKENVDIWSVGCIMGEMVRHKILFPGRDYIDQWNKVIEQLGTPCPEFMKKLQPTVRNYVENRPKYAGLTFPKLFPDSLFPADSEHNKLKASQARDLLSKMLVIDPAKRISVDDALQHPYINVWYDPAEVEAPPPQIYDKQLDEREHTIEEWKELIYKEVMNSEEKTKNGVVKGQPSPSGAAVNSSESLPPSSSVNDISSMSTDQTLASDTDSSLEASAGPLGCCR
Proto-oncogene tyrosine-protein kinase Src, sequence (P12931 2-536 limits assumed): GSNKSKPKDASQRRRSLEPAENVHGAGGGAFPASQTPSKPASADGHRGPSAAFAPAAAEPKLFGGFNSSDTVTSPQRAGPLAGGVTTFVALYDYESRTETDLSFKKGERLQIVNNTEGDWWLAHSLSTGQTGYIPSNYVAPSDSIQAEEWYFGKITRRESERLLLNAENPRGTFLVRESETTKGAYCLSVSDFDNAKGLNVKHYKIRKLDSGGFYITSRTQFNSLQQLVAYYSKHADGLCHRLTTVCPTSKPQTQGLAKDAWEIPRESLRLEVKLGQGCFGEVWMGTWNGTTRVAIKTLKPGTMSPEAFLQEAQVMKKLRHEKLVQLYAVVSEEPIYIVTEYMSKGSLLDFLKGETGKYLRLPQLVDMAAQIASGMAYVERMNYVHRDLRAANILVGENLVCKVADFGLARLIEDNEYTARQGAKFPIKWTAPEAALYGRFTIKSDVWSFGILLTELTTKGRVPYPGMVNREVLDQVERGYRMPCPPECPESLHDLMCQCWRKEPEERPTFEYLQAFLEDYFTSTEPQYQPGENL

Regarding `Cc1noc([C@H]2C3CCC(CC3)[C@@H]2Nc2nc(-c3c[nH]c4ncc(F)cc34)ncc2F)n1` (mixture of isomers), the Ki in assay [1] is greater than 4 µM; in assay [2], greater than 4 µM; in assay [3], 2.4 µM; in assay [4] it was greater than 4 µM; in assay [5] it was 1.1 µM; in assay [6], 2.3 µM. Further, the Ki was greater than 4 µM in [7]; greater than 4 µM in [8]; greater than 4 µM in assay [9]; greater than 4 µM in assay [10]; greater than 4 µM in assay [11]; 2.5 µM in [12]. Also, the inhibition constant Ki is 1.4 µM in assay [13]; greater than 4 µM in assay [14]; 0.97 µM in [15]; 0.98 µM in assay [18]; greater than 4 µM in [19]. In assay [16], the EC50 was determined as 0.12 µM. Further, in [16], the EC99 worked out at 1.2 µM. The IC50 in assay [17] is 0.21 µM.

Take `CNC(=O)[C@H]1C2CCC(CC2)[C@@H]1Nc1nc(-c2c[nH]c3ncc(F)cc23)ncc1F` (mixture of isomers): the Ki in assay [1] is greater than 4 µM; in assay [2] it was greater than 4 µM; in assay [3], 2.5 µM; in [4], greater than 4 µM; in assay [5], greater than 4 µM; in assay [6] it was greater than 4 µM. Besides, the Ki in assay [7], in assay [8], in assay [9], in assay [10], in [11] and in assay [12] was greater than 4 µM throughout. Besides, the Ki in assay [13] was greater than 4 µM; in assay [14] it was 1.1 µM; in assay [15] it was 1.4 µM; in assay [18], 0.23 µM; in assay [19], greater than 4 µM. The EC50 in assay [16] is 0.035 µM. In addition, the 99% effect concentration (EC99) in assay [16] turned out to be 0.31 µM. The IC50 in assay [17] was found to be 0.014 µM.

As for `OCC(O)[C@H]1C2CCC(CC2)[C@@H]1Nc1nc(-c2c[nH]c3ncc(F)cc23)ncc1F` (mixture of isomers), the Ki was 3.4 µM in [1]; greater than 4 µM in [2]; 3.5 µM in [3]; 2.7 µM in [4]; 0.23 µM in assay [5]; 2.5 µM in [6]. For the same molecule, the inhibition constant (Ki) in assay [7] is greater than 4 µM; in assay [8], 0.51 µM; in [9], 1.5 µM; in assay [10], greater than 4 µM; in assay [11] it was 2.6 µM; in assay [12], 1.6 µM. The Ki in assay [13] is 0.71 µM; in assay [14], 0.39 µM; in assay [15], 0.16 µM; in [18] it was 0.078 µM; in [19], 2.4 µM. The EC50 in [16] is 0.041 µM. Further, in assay [16], the EC99 stood at 0.18 µM. Moreover, in assay [17], the concentration for half-maximal inhibition (IC50) stood at 0.068 µM.

Regarding `Cc1nnc([C@H]2C3CCC(CC3)[C@@H]2Nc2nc(-c3c[nH]c4ncc(F)cc34)ncc2F)o1` (mixture of isomers), the Ki in [1], in assay [2], in [3], in [4], in assay [5] and in assay [6] was greater than 4 µM throughout. The Ki in assay [7] is greater than 4 µM; in assay [8] it was greater than 4 µM; in [9], greater than 4 µM; in [10], greater than 4 µM; in [11], greater than 4 µM; in assay [12] it was 1.2 µM. For the same molecule, the Ki in assay [13] was 2.8 µM; in assay [14] it was greater than 4 µM; in assay [15] it was 1.8 µM; in assay [18] it was 1.1 µM; in assay [19], greater than 4 µM. Moreover, in assay [16], the half-maximal effective concentration (EC50) worked out at 0.17 µM. Further, the EC99 in [16] is 1.9 µM. In addition, the IC50 in assay [17] worked out at 0.13 µM.

On to `O=c1nc([C@H]2C3CCC(CC3)[C@@H]2Nc2nc(-c3c[nH]c4ncc(F)cc34)ncc2F)[nH]o1` (mixture of isomers), for which the Ki in assay [1], in assay [2], in assay [3], in assay [4], in assay [5] and in assay [6] was greater than 4 µM in each case. Besides, the inhibitory constant (Ki) in [7], in [8], in assay [9], in assay [10], in [11] and in assay [12] was greater than 4 µM each time. Moreover, the Ki in [13], in assay [14], in [15], in assay [18] and in assay [19] was greater than 4 µM each time. For the same molecule, in assay [16], the concentration for a half-maximal effect (EC50) was found to be 0.029 µM. For the same molecule, in assay [16], the EC99 stood at 0.14 µM.

With `O=C(O)[C@H]1C2CCC(CC2)[C@@H]1Nc1nc(-c2c[nH]c3ncc(F)cc23)ncc1F` [PIMODIVIR], the Ki in assay [14] was greater than 4 µM; in assay [15] it was greater than 4 µM; in assay [18] it was 1.6 µM. In addition, in [16], the EC50 turned out to be 0.002 µM. The EC99 in assay [16] came out at 0.011 µM. For the same molecule, the half-inhibitory concentration (IC50) in [17] amounted to 0.002 µM.
